Data from ChEMBL document CHEMBL3425434 (J Med Chem, 2015).
Active and inactive are the calls of the source. The rule behind the calls is not given here.

Columns and labels:
[1] = target: T1, Rho-associated protein kinase 2 (Homo sapiens, UniProt O75116); experiment: Inhibition of human N-terminal GST-tagged ROCK2 expressed in baculovirus-infected insect cells using long S6 kinase peptide as substrate by radiometric assay in presence of [32P]ATP and 200 uM ATP
[2] = Half life in NewZealand white rabbit plasma by LC-MS/MS analysis; type: ADME, cell-free, Oryctolagus cuniculus; conditions: New Zealand white
[3] = Inhibition of ROCK-catalysed MLC Thr18/Ser19 phosphorylation in rat A7r5 cells after 90 mins by ELISA; type: cell-based; conditions: A7R5, 1.5 h
[4] = target: Protein kinase C delta type (Homo sapiens) (UniProt Q05655); experiment: Inhibition of human full length PKC delta expressed in insect cells using PKCe peptide as substrate at 100 nM by radiometric assay in presence of [32P]ATP and lipid activator
Homo sapiens = organism: Homo sapiens; experiment: Inhibition of human full length C-terminal His6-tagged PKC theta P300L mutant expressed in baculovirus-infected insect cells using histone H1 as substrate at 100 nM by radiometric assay in presence of [32P]ATP and lipid activator
[5] = Induction of apoptosis in human HDF-1 cells assessed as increase in caspase3/7 activity at 60 uM after 24 hrs by caspase Glo-3/7 assay; type: cell-based; conditions: hdf-1, 24 h
Oryctolagus cuniculus [6] = experiment: Cmax in NewZealand white rabbit plasma assessed as 4-{[(2'-(Aminomethyl)-5'-{[(3-fluoropyridin-4-yl)amino]-carbonyl}biphenyl-3-yl)carbonyl]amino}benzoic Acid at 0.1 mg/kg, iv after 120 mins by LC-MS/MS analysis; type: ADME, organism-based; set-up: dose 0.1 mg/kg, route intravenous; conditions: in vivo, 2 h
[7] = Half life in human plasma by LC-MS/MS analysis; type: ADME, cell-free
[8] = Cmax in NewZealand white rabbit plasma at 0.1 mg/kg, iv after 1 min by LC-MS/MS analysis; type: ADME, organism-based, Oryctolagus cuniculus; set-up: dose 0.1 mg/kg, route intravenous; conditions: New Zealand white
[9] = target: Serine/threonine-protein kinase N1 (Homo sapiens) (UniProt Q16512); experiment: Inhibition of human full length N-terminal GST-tagged PRK1 expressed in insect cells using glycogen synthase derived peptide as substrate at 100 nM by radiometric assay in presence of [32P]ATP
Sequence of Serine/threonine-protein kinase N1 (Homo sapiens) (Q16512 2-942 limits assumed): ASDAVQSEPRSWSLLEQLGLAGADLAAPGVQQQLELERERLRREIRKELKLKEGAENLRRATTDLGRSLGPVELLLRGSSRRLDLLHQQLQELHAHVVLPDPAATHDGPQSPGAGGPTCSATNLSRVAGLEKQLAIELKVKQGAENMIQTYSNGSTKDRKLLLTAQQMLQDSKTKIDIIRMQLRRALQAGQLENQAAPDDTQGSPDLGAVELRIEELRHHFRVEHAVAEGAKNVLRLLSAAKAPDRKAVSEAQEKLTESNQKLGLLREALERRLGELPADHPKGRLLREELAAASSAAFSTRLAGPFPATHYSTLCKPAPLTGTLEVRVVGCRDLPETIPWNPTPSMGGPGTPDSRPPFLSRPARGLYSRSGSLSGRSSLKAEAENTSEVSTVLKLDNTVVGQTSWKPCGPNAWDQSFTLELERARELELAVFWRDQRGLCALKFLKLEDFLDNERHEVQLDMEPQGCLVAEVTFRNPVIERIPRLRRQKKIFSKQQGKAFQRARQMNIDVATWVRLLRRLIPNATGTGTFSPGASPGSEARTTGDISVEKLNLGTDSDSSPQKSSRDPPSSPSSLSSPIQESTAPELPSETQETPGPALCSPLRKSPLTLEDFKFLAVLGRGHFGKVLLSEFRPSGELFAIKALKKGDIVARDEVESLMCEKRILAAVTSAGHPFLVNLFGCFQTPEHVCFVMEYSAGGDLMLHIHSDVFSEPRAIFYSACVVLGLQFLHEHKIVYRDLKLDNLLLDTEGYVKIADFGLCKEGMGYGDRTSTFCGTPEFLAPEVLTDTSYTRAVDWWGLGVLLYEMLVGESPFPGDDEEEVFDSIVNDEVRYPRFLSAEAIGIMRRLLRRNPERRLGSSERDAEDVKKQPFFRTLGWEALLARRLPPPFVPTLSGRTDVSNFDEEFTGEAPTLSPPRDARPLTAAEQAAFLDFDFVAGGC

[10] = Stability in NewZealand white rabbit hepatocytes assessed as compound remaining after 120 mins by LC-MS/MS analysis; type: ADME, cell-based, Oryctolagus cuniculus, Hepatocyte; conditions: New Zealand white, read-out: Stability
[11] = target: Serine/threonine-protein kinase N2 (Homo sapiens) (UniProt Q16513); experiment: Inhibition of human full length N-terminal GST-tagged PRK2 expressed in insect cells using glycogen synthase derived peptide as substrate at 100 nM by radiometric assay in presence of [32P]ATP
Sequence of Serine/threonine-protein kinase N2 (Homo sapiens) (Q16513 whole entry, looked up): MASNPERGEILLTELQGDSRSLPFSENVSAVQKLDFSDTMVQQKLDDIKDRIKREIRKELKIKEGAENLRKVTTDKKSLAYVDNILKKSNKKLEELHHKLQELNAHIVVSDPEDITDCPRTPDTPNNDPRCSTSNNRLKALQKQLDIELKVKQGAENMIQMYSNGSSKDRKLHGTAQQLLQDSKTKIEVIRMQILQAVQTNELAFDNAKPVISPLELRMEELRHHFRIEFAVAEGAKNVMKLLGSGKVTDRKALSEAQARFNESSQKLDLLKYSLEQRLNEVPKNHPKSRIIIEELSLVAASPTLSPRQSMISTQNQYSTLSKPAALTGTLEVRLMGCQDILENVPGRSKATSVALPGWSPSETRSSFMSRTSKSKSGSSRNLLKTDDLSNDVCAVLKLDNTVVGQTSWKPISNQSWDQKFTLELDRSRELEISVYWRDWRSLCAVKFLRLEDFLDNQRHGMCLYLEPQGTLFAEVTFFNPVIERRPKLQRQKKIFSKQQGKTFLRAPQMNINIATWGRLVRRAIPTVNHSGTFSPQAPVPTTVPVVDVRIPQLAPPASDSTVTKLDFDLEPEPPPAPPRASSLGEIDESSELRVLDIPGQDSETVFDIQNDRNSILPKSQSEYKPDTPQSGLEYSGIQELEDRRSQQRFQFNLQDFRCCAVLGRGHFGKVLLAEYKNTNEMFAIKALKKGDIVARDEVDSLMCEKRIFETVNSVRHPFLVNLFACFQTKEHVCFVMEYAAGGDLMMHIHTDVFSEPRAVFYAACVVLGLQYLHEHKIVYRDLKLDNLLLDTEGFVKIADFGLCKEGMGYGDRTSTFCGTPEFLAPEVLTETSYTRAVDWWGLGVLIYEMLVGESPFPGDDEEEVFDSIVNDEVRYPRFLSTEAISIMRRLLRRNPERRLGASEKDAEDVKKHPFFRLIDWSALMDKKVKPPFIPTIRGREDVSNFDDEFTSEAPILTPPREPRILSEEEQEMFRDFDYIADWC

[12] = Half life in NewZealand white rabbit hepatocytes by LC-PDA-MSA analysis; type: ADME, cell-based, Oryctolagus cuniculus, Hepatocyte; conditions: New Zealand white
[13] = target: T2, cAMP-dependent protein kinase catalytic subunit PRKX (Homo sapiens) (UniProt P51817); experiment: Inhibition of human full length N-terminal GST-tagged PRKX expressed in insect cells using kemptide as substrate at 100 nM by radiometric assay in presence of [32P]ATP
T2 sequence (whole entry): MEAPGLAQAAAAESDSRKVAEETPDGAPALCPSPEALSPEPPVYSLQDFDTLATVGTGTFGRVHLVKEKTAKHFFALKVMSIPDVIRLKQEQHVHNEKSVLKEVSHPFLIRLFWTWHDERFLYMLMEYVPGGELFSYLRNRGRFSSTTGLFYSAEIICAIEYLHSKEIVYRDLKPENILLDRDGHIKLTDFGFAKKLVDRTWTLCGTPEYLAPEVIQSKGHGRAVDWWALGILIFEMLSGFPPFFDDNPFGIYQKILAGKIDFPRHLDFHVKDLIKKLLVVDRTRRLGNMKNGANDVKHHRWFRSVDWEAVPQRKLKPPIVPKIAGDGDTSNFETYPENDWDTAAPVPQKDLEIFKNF

[14] = Half life in NewZealand white rabbit plasma at 0.1 mg/kg, iv by LC-MS/MS analysis; type: ADME, organism-based, Oryctolagus cuniculus; set-up: dose 0.1 mg/kg, route intravenous; conditions: New Zealand white
[15] = target: Protein kinase C eta type (Homo sapiens) (UniProt P24723); experiment: Inhibition of human N-terminal GST-tagged PKC eta expressed in baculovirus-infected insect cells using PKCe peptide as substrate at 10 nM by radiometric assay in presence of [32P]ATP and lipid activator
Sequence of Protein kinase C eta type (Homo sapiens) (P24723 whole entry): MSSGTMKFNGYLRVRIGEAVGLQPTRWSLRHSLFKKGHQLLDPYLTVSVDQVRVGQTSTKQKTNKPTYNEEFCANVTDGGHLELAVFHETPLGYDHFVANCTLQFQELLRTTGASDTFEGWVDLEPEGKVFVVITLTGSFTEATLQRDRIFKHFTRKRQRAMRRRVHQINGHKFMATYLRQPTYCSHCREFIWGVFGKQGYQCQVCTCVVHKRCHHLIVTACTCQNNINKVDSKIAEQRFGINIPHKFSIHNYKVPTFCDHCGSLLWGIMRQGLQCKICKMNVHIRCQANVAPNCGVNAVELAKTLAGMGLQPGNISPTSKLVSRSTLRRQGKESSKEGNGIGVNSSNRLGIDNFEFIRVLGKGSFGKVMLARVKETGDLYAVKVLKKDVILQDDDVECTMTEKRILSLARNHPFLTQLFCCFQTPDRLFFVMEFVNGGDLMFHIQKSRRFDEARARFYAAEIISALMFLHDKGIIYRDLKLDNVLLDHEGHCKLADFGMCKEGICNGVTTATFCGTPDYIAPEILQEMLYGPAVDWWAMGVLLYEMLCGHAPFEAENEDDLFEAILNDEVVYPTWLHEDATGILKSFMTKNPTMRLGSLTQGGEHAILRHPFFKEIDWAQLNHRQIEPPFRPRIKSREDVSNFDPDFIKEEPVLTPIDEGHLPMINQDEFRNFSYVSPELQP

[16] = target: Rho-associated protein kinase 1 (Homo sapiens, UniProt Q13464); experiment: Inhibition of human N-terminal GST-tagged ROCK1 expressed in insect cells using long S6 kinase peptide as substrate by radiometric assay in presence of [32P]ATP
HDF-1 = experiment: Induction of cell migration in human HDF-1 cells after 8 hrs by wound healing assay; type: functional, cell-based
[17] = Cmax in NewZealand white rabbit plasma at 0.1 mg/kg, iv after 30-60 mins by LC-MS/MS analysis; type: ADME, organism-based, Oryctolagus cuniculus; set-up: dose 0.1 mg/kg, route intravenous; conditions: New Zealand white
[18] = Cytotoxicity against human HDF-1 cells assessed as decrease in cell viability after 2 hrs by WST-1 assay; type: cell-based
Oryctolagus cuniculus [19] = experiment: Cmax in NewZealand white rabbit plasma assessed as 4-{[(2'-(Aminomethyl)-5'-{[(3-fluoropyridin-4-yl)amino]-carbonyl}biphenyl-3-yl)carbonyl]amino}benzoic Acid at 0.1 mg/kg, iv after 10 mins by LC-MS/MS analysis; type: ADME, organism-based; set-up: dose 0.1 mg/kg, route intravenous; conditions: in vivo
[20] = Cmax in NewZealand white rabbit plasma at 0.1 mg/kg, iv after 10 mins by LC-MS/MS analysis; type: ADME, organism-based, Oryctolagus cuniculus; set-up: dose 0.1 mg/kg, route intravenous; conditions: New Zealand white
[21] = Cmax in NewZealand white rabbit plasma at 0.1 mg/kg, iv after 5 mins by LC-MS/MS analysis; type: ADME, organism-based, Oryctolagus cuniculus; set-up: dose 0.1 mg/kg, route intravenous; conditions: New Zealand white
[22] = target: Protein kinase C eta type (Homo sapiens) (UniProt P24723); experiment: Inhibition of human N-terminal GST-tagged PKC eta expressed in baculovirus-infected insect cells using PKCe peptide as substrate at 100 nM by radiometric assay in presence of [32P]ATP and lipid activator
[23] = target: T3, Protein kinase C epsilon type (Homo sapiens) (UniProt Q02156); experiment: Inhibition of human full length PKC epsilon expressed in insect cells using S25 PKC peptide as substrate at 100 nM by radiometric assay in presence of [32P]ATP
T3 sequence (whole entry): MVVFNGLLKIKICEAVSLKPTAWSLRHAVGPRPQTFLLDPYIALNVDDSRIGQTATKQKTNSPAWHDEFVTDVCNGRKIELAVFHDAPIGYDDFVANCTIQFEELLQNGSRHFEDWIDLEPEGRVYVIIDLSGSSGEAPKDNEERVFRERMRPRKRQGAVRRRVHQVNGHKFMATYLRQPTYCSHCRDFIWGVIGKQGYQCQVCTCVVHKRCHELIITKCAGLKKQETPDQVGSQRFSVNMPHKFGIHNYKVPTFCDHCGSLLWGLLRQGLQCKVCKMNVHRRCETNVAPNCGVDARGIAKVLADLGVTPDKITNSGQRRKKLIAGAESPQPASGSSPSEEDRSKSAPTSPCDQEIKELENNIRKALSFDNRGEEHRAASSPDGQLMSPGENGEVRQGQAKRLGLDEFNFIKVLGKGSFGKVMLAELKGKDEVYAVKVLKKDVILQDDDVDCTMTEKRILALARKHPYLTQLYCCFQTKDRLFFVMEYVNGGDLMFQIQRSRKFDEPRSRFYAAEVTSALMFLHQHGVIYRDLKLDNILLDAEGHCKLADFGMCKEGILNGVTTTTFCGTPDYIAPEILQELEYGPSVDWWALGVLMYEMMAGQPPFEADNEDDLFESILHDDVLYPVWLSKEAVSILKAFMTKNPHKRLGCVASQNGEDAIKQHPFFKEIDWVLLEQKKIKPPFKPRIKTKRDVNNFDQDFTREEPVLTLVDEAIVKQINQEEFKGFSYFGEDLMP

[24] = Stability in human hepatocytes assessed as compound remaining after 120 mins by LC-MS/MS analysis; type: ADME, cell-based, Hepatocyte; conditions: read-out: Stability
[25] = target: Ribosomal protein S6 kinase alpha-5 (Homo sapiens) (UniProt O75582); experiment: Inhibition of human full length N-terminal GST-tagged MSK1 expressed in insect cells using crosstide as substrate at 100 nM by radiometric assay in presence of [32P]ATP
Sequence of Ribosomal protein S6 kinase alpha-5 (Homo sapiens) (O75582 whole entry, looked up): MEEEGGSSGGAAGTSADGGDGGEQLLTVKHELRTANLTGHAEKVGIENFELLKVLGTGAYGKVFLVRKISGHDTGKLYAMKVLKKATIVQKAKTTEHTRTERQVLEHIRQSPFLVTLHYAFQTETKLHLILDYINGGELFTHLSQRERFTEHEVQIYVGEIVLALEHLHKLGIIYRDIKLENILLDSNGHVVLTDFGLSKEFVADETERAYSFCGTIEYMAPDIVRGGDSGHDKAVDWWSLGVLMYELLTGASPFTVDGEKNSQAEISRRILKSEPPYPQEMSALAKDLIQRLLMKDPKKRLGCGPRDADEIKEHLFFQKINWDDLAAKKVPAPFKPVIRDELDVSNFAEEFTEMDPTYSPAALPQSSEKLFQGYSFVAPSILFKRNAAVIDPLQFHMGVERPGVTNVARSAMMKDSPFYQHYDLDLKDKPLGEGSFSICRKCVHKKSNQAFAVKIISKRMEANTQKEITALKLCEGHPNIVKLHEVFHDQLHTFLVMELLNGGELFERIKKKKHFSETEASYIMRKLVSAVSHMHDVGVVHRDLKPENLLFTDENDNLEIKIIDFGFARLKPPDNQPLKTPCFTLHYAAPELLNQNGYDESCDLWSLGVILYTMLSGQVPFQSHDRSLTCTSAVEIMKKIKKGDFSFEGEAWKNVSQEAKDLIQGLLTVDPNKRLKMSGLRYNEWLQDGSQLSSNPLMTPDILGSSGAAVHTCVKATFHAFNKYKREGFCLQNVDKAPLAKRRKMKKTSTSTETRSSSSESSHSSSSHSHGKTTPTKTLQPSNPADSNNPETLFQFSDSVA

[26] = Half life in human hepatocytes by LC-PDA-MSA analysis; type: ADME, cell-based, Hepatocyte
[27] = Lipophilicity, log D of the compound at pH 7.4; type: physicochemical; conditions: buffer
[28] = target: T1, Rho-associated protein kinase 2; experiment: Inhibition of human N-terminal GST-tagged ROCK2 expressed in baculovirus-infected insect cells using long S6 kinase peptide as substrate by radiometric assay in presence of [32P]ATP
[29] = target: Serine/threonine-protein kinase N2 (Homo sapiens) (UniProt Q16513); experiment: Inhibition of human full length N-terminal GST-tagged PRK2 expressed in insect cells using glycogen synthase derived peptide as substrate at 10 nM by radiometric assay in presence of [32P]ATP
[30] = Apparent permeability across human Caco2 cells; type: ADME, cell-based; conditions: Caco-2

T1 sequence (O75116 whole entry): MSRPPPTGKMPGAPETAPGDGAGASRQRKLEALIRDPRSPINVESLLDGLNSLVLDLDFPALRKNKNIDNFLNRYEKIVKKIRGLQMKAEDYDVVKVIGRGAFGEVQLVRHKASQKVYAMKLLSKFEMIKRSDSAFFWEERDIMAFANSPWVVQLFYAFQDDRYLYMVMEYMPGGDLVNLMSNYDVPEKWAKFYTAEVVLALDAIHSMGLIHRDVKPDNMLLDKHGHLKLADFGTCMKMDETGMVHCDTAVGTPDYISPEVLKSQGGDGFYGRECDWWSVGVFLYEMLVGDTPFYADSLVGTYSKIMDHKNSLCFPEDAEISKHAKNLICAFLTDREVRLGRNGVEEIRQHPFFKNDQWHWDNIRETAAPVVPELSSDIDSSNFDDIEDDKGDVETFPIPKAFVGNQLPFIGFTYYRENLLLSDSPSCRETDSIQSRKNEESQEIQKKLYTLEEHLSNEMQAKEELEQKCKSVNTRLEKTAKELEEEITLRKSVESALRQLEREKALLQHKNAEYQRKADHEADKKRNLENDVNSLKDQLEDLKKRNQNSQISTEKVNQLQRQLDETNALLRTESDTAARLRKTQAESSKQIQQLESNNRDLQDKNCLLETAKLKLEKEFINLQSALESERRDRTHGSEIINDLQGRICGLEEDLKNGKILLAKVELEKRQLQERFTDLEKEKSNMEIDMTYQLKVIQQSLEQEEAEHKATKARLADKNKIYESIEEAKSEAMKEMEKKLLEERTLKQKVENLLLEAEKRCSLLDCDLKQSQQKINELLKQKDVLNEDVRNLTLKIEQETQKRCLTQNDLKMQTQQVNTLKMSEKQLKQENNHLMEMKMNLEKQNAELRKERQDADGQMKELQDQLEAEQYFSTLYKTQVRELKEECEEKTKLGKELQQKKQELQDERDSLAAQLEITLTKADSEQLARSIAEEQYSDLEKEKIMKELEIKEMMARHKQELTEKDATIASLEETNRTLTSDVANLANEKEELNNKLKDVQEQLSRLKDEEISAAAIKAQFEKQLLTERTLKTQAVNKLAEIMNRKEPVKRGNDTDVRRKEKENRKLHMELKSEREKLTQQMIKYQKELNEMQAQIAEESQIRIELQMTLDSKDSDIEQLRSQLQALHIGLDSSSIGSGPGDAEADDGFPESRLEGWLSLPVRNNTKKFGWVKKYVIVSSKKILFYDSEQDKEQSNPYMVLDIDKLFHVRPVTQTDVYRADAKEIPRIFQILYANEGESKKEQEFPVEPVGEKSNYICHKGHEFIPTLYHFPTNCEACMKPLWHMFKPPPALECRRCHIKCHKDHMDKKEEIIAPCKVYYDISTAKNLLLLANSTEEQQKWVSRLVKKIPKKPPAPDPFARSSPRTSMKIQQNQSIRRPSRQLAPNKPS

Structure (SMILES): COC(=O)c1ccc(NC(=O)c2cccc(-c3cc(C(=O)Nc4ccncc4F)ccc3CN)c2)cc1
- IC50 [1]: 4.1 nM
- half-life [2]: > 120 min
- EC50 [3]: 3 nM
- inhibition [4]: Active
- inhibition (Homo sapiens): Active
- Activity [5]: Toxic
- Cmax (Oryctolagus cuniculus [6]): > 35 nM
- half-life [7]: > 120 min
- Cmax [8]: 803 nM
- inhibition [9]: Active
- remaining at 2 h [10]: 0.4%
- inhibition [11]: Active
- half-life [12]: 12 min
- inhibition [13]: Active
- half-life [14]: 22 min
- inhibition [15]: > 50%
- IC50 [16]: < 1 nM
- Activity (HDF-1): Dose-dependent effect
- Cmax [17]: > 8 nM
- CC50 at 2 h [18]: 46000 nM
- Cmax (Oryctolagus cuniculus [19]): 255 nM
- Cmax [20]: 57 nM
- Cmax [21]: 176 nM
- inhibition [22]: Active
- inhibition [23]: Active
- remaining at 2 h [24]: 2.4%
- inhibition [25]: Active
- half-life [26]: 12 min
- logD [27]: 2.74
- IC50 [28]: < 1 nM
- inhibition [29]: > 50%
- Papp [30]: 0.8 ×10⁻⁶ cm/s
